Test results from patent US4812472A, “Isoxazole compounds and pharmaceutical compositions containing them for treatment and prophylaxis of retroviruses diseases” (Chemie Linz Akteingesellschaft, priority 1985, dated 1989).
Values after ≈ are worked out from the molar mass of the structure shown.

What was measured:
[1] = tested on: Rhino type 16; assay: Virus inhibition test (MIC); type: cell-based, rhinovirus type 16; details: Enterovirus, in vitro, read-out: Minimum inhibitory conc. (MIC)
[2] = ATH8 cell viability; details: human, ath8 cells
[3] = tested on: HIV (HTLV-IIIB); assay: microbe, parasite or virus in culture; type: cell-based
[4] = tested on: Rhino type 3; assay: Virus inhibition test (MIC); type: cell-based, rhinovirus type 3; details: Enterovirus, in vitro, read-out: Minimum inhibitory conc. (MIC)
[5] = tested on: Rhino type 32; assay: Virus inhibition test (MIC); type: cell-based, rhinovirus type 32; details: Enterovirus, in vitro, read-out: Minimum inhibitory conc. (MIC)
[6] = Toxicity control, minimum toxic concentration (MTC); type: cell-based; details: cell density still lower than in the cell control
[7] = tested on: Polio type 2; assay: microbe, parasite or virus in culture; type: cell-based, poliovirus type 2; details: Enterovirus C, read-out: Minimum inhibitory conc. (MIC)
[8] = tested on: Echo type B-9; assay: Virus inhibition test (MIC); type: cell-based, echovirus type B-9; details: Echovirus, in vitro, read-out: Minimum inhibitory conc. (MIC)
[9] = tested on: Rhino type 55; assay: Virus inhibition test (MIC); type: cell-based, rhinovirus type 55; details: Enterovirus, in vitro, read-out: Minimum inhibitory conc. (MIC)
[10] = tested on: Rhino type 48; assay: Virus inhibition test (MIC); type: cell-based, rhinovirus type 48; details: Enterovirus, in vitro, read-out: Minimum inhibitory conc. (MIC)
[11] = tested on: Rhino type 26; assay: Virus inhibition test (MIC); type: cell-based, rhinovirus type 26; details: Enterovirus, in vitro, read-out: Minimum inhibitory conc. (MIC)
[12] = tested on: Rhino type 37; assay: Virus inhibition test (MIC); type: cell-based, rhinovirus type 37; details: Enterovirus, in vitro, read-out: Minimum inhibitory conc. (MIC)

Compound: Cc1cc(CCCCCCCOc2ccc(C3=NCCO3)s2)on1 [Compound A, 5-(7-(5-(4,5-dihydro-2-oxazolyl)-2-thienyl)-oxyheptyl)-3-methyl-isoxazole]
- MIC [1]: 0.3 µg/mL (≈ 0.861 µM)
- CC50 [2]: 35 µM
- CC50 at 240 h [2]: 35 µM
- inhibitory effect on HIV-induced cytopathogenicity in ATH8 cells ([3]; ATH8 cells): marked inhibitory effect
- ID50/MIC50 (in vitro therapeutic index) ([3]; ATH8 cells, day 6-7 after virus inoculation): 175
- ID50/MIC50 (in vitro therapeutic index) ([3]; ATH8 cells, day 10 after virus inoculation): 175
- EC50 ([3]; Human immunodeficiency virus 1, IIIB, ATH-8, 168 h, read-out: MIC50): 0.2 µM
- MIC [4]: 0.03 µg/mL (≈ 0.0861 µM)
- MIC [5]: 1 µg/mL (≈ 2.87 µM)
- MCC [6]: 10 µg/mL
- MIC [7]: 0.1 µg/mL (≈ 0.287 µM)
- MIC [8]: 0.03 µg/mL (≈ 0.0861 µM)
- MIC [9]: 0.3 µg/mL (≈ 0.861 µM)
- MIC [10]: 0.1 µg/mL (≈ 0.287 µM)
- MIC [11]: 0.3 µg/mL (≈ 0.861 µM)
- MIC [12]: 0.03 µg/mL (≈ 0.0861 µM)

Compound: Cc1cc(CCCCCCCOc2csc(C3=NCCO3)c2)on1 [Compound B, 5-(7-(2-(4,5-dihydro-2-oxazolyl)-4-thienyl)oxyheptyl)-3-methyl-isoxazole]
- MIC [1]: 1 µg/mL (≈ 2.87 µM)
- MIC [4]: 0.1 µg/mL (≈ 0.287 µM)
- MIC [5]: 3 µg/mL (≈ 8.61 µM)
- MCC [6]: 10 µg/mL
- MIC [7]: 1 µg/mL (≈ 2.87 µM)
- MIC [8]: 1 µg/mL (≈ 2.87 µM)
- MIC [9]: 0.3 µg/mL (≈ 0.861 µM)
- MIC [10]: 1 µg/mL (≈ 2.87 µM)
- MIC [11]: 1 µg/mL (≈ 2.87 µM)
- MIC [12]: 0.03 µg/mL (≈ 0.0861 µM)
